This note sets out measurements from patent US10377770B2 (Novartis AG, priority 2015, dated 2019).

This experiment concerns the target C-Raf FL (full length CRAF with Y340E and Y341E activating mutations, co-expressed with h14-3-3 zeta) (Homo sapiens (Human), UniProt P04049, Y340E/Y341E). Put plainly: In vitro Raf activity determination, AlphaScreen p-MEK readout, c-Raf (C-Raf FL). It counts as biochemical. To be noted: c-Raf approximately 4 nM, ATP 1 μM, pre-incubation 60 minutes, reaction 1 hour. An excerpt: Sf9 cells co-expressing both proteins were lysed and subjected to immobilized nickel chromatography and eluted with Imidazole. A second column (StrepII binding column) was used and eluted with desthiobiotin. Protein Tags were removed using Prescission enzyme and the protein was further purified using a flowthrough step to remove tags.
C-Raf TR refers to a truncated C-Raf protein, a Δ1-324 deletion mutant. C-Raf FL refers to the full-length C-Raf protein.
Full length MEK1 with an inactivating K97R ATP binding site mutation is utilized as a RAF substrate. The MEK1 cDNA was subcloned with an N-terminal (his)6 tag into a vector for E. Coli expression. The MEK1 substrate was purified from E. Coli lysate by nickel affinity chromatography followed by anion exchange. The final MEK1 preparation was biotinylated (Pierce EZ-Link Sulfo-NHS-LC-Biotin) and concentrated.
Assay Materials: Assay buffer is 50 mM Tris, pH 7.5, 15 mM MgCl2, 0.01% Bovine Serum Albumin (BSA) and 1 mM dithiothreitol (DTT); Stop buffer is 60 mM ethylenediaminetetraacetic acid (EDTA) and 0.01% Tween® 20; b-Raf (V600E), active; biotinylated Mek, kinase dead; Alpha Screen detection kit (available from PerkinElmer™, #6760617R); Anti phospho-MEK1/2 (available from Cell Signaling Technology, Inc. #9121); 384 well low volume assay plates (White Greiner® plates).
Assay conditions: b-Raf (V600E) approximately 4 pM; c-Raf approximately 4 nM; biotinylated Mek, kinase dead approximately 10 nM; ATP 10 μM for BRAF (V600E) and 1 μM for CRAF; Pre-incubation time with compounds 60 minutes at room temperature; Reaction time 1 or 3 hours at room temperature.
Assay protocol: Raf and biotinylated Mek (kinase dead) were combined at 2× final concentrations in assay buffer (50 mM Tris, pH 7.5, 15 mM MgCl2, 0.01% BSA and 1 mM DTT) and dispensed […] per well in assay plates (Greiner white 384 well assay plates #781207) containing […] of 40× of a Raf kinase inhibitor test compound diluted in 100% DMSO. The plate was incubated for 60 minutes at room temperature. The Raf kinase activity reaction was started by the addition of […] per well of 2×ATP diluted in assay buffer. After 3 hours (b-Raf(V600E)) or 1 hour (c-Raf). The reactions were stopped and the phosphorylated product was measured using a rabbit anti-p-MEK (Cell Signaling, #9121) antibody and the Alpha Screen IgG (ProteinA) detection Kit (PerkinElmer #6760617R), by the addition of […] to the well of a mixture of the antibody (1:2000 dilution) and detection beads (1:2000 dilution of both beads) in Stop/bead buffer (25 mM EDTA, 50 mM Tris, pH 7.5, 0.01% Tween20). The additions were carried out under dark conditions to protect the detection beads from light. A lid was placed on top of the plate and incubated for 1 hour at room temperature, after which the luminescence was read on a PerkinElmer Envision instrument.
For orientation: Bead proximity is the source of the signal in Alpha formats.

C-Raf FL (full length CRAF with Y340E and Y341E activating mutations, co-expressed with h14-3-3 zeta), sequence (P04049 whole entry Y340E/Y341E, the tested form may be a part): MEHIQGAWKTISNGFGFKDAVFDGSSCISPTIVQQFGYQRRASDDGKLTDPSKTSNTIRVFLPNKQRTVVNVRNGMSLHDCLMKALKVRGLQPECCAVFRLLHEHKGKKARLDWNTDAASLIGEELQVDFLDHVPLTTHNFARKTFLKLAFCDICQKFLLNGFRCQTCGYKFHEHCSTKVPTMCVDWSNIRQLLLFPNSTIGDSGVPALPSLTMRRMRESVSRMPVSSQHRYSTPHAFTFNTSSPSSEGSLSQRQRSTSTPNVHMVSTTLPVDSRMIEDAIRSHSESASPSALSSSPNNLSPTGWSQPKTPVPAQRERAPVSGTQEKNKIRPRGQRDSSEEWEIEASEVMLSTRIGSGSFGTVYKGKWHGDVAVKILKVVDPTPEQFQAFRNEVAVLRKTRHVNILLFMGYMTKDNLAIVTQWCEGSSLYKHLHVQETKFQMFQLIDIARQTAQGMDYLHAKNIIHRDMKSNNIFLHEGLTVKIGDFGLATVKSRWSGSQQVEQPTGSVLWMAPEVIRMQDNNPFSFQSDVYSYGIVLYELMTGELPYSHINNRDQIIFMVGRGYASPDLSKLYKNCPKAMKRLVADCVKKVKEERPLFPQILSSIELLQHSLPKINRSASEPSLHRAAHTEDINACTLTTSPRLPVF
C-Raf FL (full length CRAF with Y340E and Y341E activating mutations, co-expressed with h14-3-3 zeta), sequence (P63104 whole entry partner, the tested form may be a part): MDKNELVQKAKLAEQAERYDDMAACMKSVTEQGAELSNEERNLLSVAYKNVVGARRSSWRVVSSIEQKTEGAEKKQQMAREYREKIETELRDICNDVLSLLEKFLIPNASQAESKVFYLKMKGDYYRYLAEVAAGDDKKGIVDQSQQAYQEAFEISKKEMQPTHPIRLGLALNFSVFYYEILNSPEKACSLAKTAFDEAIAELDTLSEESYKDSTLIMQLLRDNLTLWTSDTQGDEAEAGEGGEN

For the molecule `Cc1ccc(NC(=O)c2ccnc(C(F)(F)F)c2)cc1-c1cnc2c(c1)N1CCOC[C@H]1CC(=O)N2CC(C)(C)O` [Example 288, (R)-N-(3-(7-(2-hydroxy-2-methylpropyl)-6-oxo-2,4,4a,5,6,7-hexahydro-1H-[1,4]oxazino[4,3-d]pyrido[2,3-b][1,4]diazepin-10-yl)-4-methylphenyl)-2-(trifluoromethyl) isonicotinamide], the IC50 (usually the midpoint of a concentration-inhibition curve) is 0.9 nM.
In the case of `CCN1C(=O)[C@H]2[C@@H]3COC[C@@H]3[C@H]2c2cc(-c3cc(NC(=O)c4ccnc(C(F)(F)F)c4)ccc3C)cnc21` (racemic) [Example 362], half-maximal inhibition (IC50) was put at 0.2 nM. This IC50 is about 4.5-fold lower than that of the molecule before.
Next, `CCN1C(=O)[C@H]2COCC[C@]2(C)c2cc(-c3cc(NC(=O)c4ccnc(C(C)(F)F)c4)ccc3C)cnc21` (stereo in doubt) [Example 344, 2-(1,1-difluoroethyl)-N-(3-((4a,10b-trans)6-ethyl-10b-methyl-5-oxo-2,4,4a,5,6,10b-hexahydro-1H-pyrano[3,4-c][1,8]naphthyridin-9-yl)-4-methylphenyl)isonicotinamide]: 0.1 nM; `Cc1ccc(NC(=O)c2ccnc(C(C)(C)F)c2)cc1-c1ccc2c(c1)N1CCOCC1CC2O` (racemic) [Example 7, (rac)-2-(2-fluoropropan-2-yl)-N-(3-(6-hydroxy-1,2,4,4a,5,6-hexahydro-[1,4]oxazino[4,3-a]quinolin-9-yl)-4-methylphenyl)isonicotinamide]: 0.033 nM; `Cc1ccc(NC(=O)c2ccnc(C(C)(F)F)c2)cc1-c1cc2c(nn1)[C@H](O)C[C@@H]1COCCN21` (racemic) [Example 46, (rac)(trans)-2-(1,1-difluoroethyl)-N-(3-(5-hydroxy-5,6,6a,7,9,10-hexahydropyridazino[3′,4′:5,6]pyrido[2,1-c][1,4]oxazin-2-yl)-4-methylphenyl)isonicotinamide]: 0.014 nM.
Take `Cc1ccc(NC(=O)c2ccnc(C(F)(F)F)c2)cc1-c1cnc2c(c1)N1CCOC[C@@H]1C[C@@H]2O` [Example 103, N-(3-((4aS,6S)-6-hydroxy-1,2,4,4a,5,6-hexahydro-[1,4]oxazino[4,3-a][1,5]naphthyridin-9-yl)-4-methylphenyl)-2-(trifluoromethyl)isonicotinamide]: the IC50 is 0.013 nM.
On to `CCN1C[C@@H]2COCCN2c2cc(-c3cc(NC(=O)c4cccc(C(F)(F)F)c4)cnc3C)cnc2C1=O` [Example 501, (R)-N-(5-(6-ethyl-7-oxo-1,2,4a,5,6,7-hexahydro-4H-[1,4]oxazino[4,3-a]pyrido[2,3-f][1,4]diazepin-10-yl)-6-methypyridin-3-yl)-3-(trifluoro-methyl)benzamide], for which the IC50 was determined as 0.2 nM.
The molecule `Cc1ccc(NC(=O)c2ccnc(C(F)(F)F)c2)cc1-c1cnc2c(c1)N1CCOC[C@H]1C[C@@H]2C` [Example 521, N-(4-methyl-3-((4aR,6S)-6-methyl-1,2,4,4a,5,6-hexahydro-[1,4]oxazino[4,3-a][1,5]naph-thyridin-9-yl)phenyl)-2-(trifluoromethyl)iso-nicotinamide] yielded an IC50 of 0.5 nM.
The result for `Cc1ncc(NC(=O)c2ccnc(C(C)(F)F)c2)cc1-c1ccc2c(c1)N1CCOCC1C(F)(CO)C2` (racemic) [Example 79, (rac)-2-(1,1-difluoroethyl)-N-(5-(5-fluoro-5-(hydroxymethyl)-1,2,4,4a,5,6-hexahydro-[1,4]oxazino[4,3-a]quinolin-9-yl)-6-methylpyridin-3-yl)isonicotinamide] reads 0.038 nM; that for `Cc1ccc(NC(=O)c2ccnc(C(C)(C)F)c2)cc1-c1cc2c(cc1F)C[C@](F)(CO)[C@H]1COCCN21` [Example 478, N-(3-((4aR,5R)-5,8-difluoro-5-(hydroxymethyl)-1,2,4,4a,5,6-hexahydro-[1,4]oxazino[4,3-a]quinolin-9-yl)-4-methylphenyl)-2-(2-fluoropropan-2-yl)isonicotinamide], 0.2 nM.
The result for `Cc1ccc(NC(=O)c2ccnc(C(F)(F)F)c2)cc1-c1cnc2c(c1)N1CCOCC1CC2=O` (racemic) [Example 110, rac-N-(4-methyl-3-(6-oxo-1,2,4,4a,5,6-hexahydro-[1,4]oxazino[4,3-a][1,5]naphthyridin-n-9-yl)phenyl)-2-(trifluoromethyl)isonicotinamide] reads 0.002 nM; that for `Cc1ccc(NC(=O)c2ccnc(C(C)(F)F)c2)cc1-c1ccc2c(c1)N1CCOC[C@H]1C[C@H]2O` [Example 13, 2-(1,1-difluoroethyl)-N-(3-((4aR,6R)-6-hydroxy-1,2,4,4a,5,6-hexahydro-[1,4]oxazino[4,3-a]quinolin-9-yl)-4-methylphenyl)isonicotinamide], 0.0055 nM; that for `Cc1ncc(NC(=O)c2cccc(C(F)(F)F)c2)cc1-c1ccc2c(c1)N1CCOC[C@@H]1[C@@](CO)(CF)C2` [Example 406, N-(5-((4aS,5S)-5-(fluoromethyl)-5-(hydroxymethyl)-1,2,4,4a,5,6-hexahydro-[1,4]oxazino[4,3-a]quinolin-9-yl)-6-methylpyridin-3-yl)-3-(trifluoromethyl)benzamide], 0.4 nM.
Next, `Cc1ccc(NC(=O)c2cnnc(C(F)(F)F)c2)cc1-c1cc(F)c2c(c1)N1CCOC[C@H]1[C@](F)(CO)C2` [Example 423, N-(3-((4aS,5S)-5,7-difluoro-5-(hydroxymethyl)-1,2,4,4a,5,6-hexahydro-[1,4]oxazino[4,3-a]quinolin-9-yl)-4-methylphenyl)-6-(trifluoromethyl)pyridazine-4-carboxamide]: 0.7 nM; `Cc1ccc(NC(=O)c2ccnc(C(F)(F)F)c2)cc1-c1cc2c(nn1)[C@H](O)C[C@@H]1COCCN21` (racemic) [Example 48, (rac)-(trans)-N-(3-(5-hydroxy-5,6,6a,7,9,10-hexahydropyridazino[3′,4′:5,6]pyrido[2,1-c][1,4]oxazin-2-yl)-4-methylphenyl)-2-(trifluoromethyl)isonicotinamide]: 0.049 nM.
Molecule `Cc1ccc(NC(=O)c2ccnc(C(F)(F)F)c2)cc1-c1ccc2c(c1)N1CCOC[C@H]1[C@](F)(CF)C2` [Example 472, N-(3-((4aS,5S)-5-fluoro-5-(fluoromethyl)-1,2,4,4a,5,6-hexahydro-[1,4]oxazino[4,3-a]quinolin-9-yl)-4-methylphenyl)-2-(trifluoromethyl)iso-nicotinamide] displayed an IC50 of 2 nM.
In turn, `Cc1ccc(NC(=O)c2ccnc(C(F)(F)F)c2)cc1-c1ccc2c(c1)N1CCOCC1c1cn(C)nc1-2` (racemic) [Example 45, (rac)-N-(4-methyl-3-(2-methyl-3b,4,6,7-tetrahydro-2H-[1,4]oxazino[4,3-a]pyrazolo[4,3-c]quinolin-10-yl)phenyl)-2-(trifluoromethyl)isonicotinamide] returned an IC50 of 0.17 nM. This IC50 lies about 12-fold lower than the previous one.
`CCN1C(=O)[C@H]2COCC[C@@H]2c2cc(-c3cc(NC(=O)c4ccnc(C(F)(F)F)c4)ccc3C)cnc21` [Example 236, N-(3-((4aR,10bS)-6-ethyl-5-oxo-1,4,4a,5,6,10b-hexahydro-2H-pyrano[3,4-c][1,8]naphthyridin-9-yl)-4-methylphenyl)-2-(trifluoromethyl)isonicotinamide] yielded an IC50 of 0.3 nM. Against the preceding molecule, the IC50 is about 1.8-fold higher.
For `Cc1ncc(NC(=O)c2cccc(C(F)(F)F)c2)cc1-c1ccc2c(c1)N1CCOC[C@H]1[C@@](F)(CO)C2` [Example 394, N-(5-((4aS,5R)-5-fluoro-5-(hydroxymethyl)-1,2,4,4a,5,6-hexahydro-[1,4]oxazino[4,3-a]quinolin-9-yl)-6-methylpyridin-3-yl)-3-(trifluoromethyl)benzamide], it took 0.3 nM to reach half-maximal inhibition (IC50).
